Measurements as given in patent publication US9676719B2, “Phenyl derivative” (ONO PHARMACEUTICAL CO., LTD., priority 2013, dated 2017).
Values after ≈ are worked out from the molar mass of the structure shown.

Tests used:
Solubility measurement = assay type: physicochemical; details: aqueous buffer, kinetic from dmso stock; second solution of Japanese Pharmacopoeia (pH 6.8), room temperature, stirring 5 hours, LC-MS/MS
Method: A solution for obtaining a calibration curve was prepared by diluting a test substance (10 mmol/L, DMSO solution) in acetonitrile and adding acetonitrile containing an internal standard substance (warfarin) to adjust to 0.1, 0.4 and 2 μmol/L. A sample solution was prepared by adding to 495 μL (pH 6.8) of the second solution defined in Japanese Pharmacopoeia (a solution used was obtained by adding water to 250 mL of a 0.2 mol/L potassium dihydrogen phosphate reagent solution and 118 mL of a 0.2 mol/L sodium hydroxide reagent solution to adjust to 1000 mL) 5 μL of a test substance (10 mmol/L, DMSO solution), stirring at room temperature for 5 hours, transferring the obtained solution to a plate with a filter for vacuum filtration, diluting 20 μL of the filtrate with acetonitrile and adding acetonitrile containing the internal standard. The solution for obtaining a calibration curve and the sample solution (5 μL each) were injected to LC-MS/MS (Discovery Max from Thermo Scientific) for quantification (quantification range: 0.1 to 2 μmol/L). The solubility was calculated by multiplying the quantified value by 50. When the quantified value was outside of the quantification range, the solubility was expressed as <5 μmol/L or 100 μmol/L.

human S1P2 (EDG-5) = molecular target: T1, human S1P2 (EDG-5) (Homo sapiens, UniProt O95136); test: S1P2 (EDG-5) antagonistic activity by monitoring the change in intracellular calcium ion concentration (human); assay type: cell-based; details: CHO cells overexpressing human S1P2 (EDG-5) gene; suppression of S1P (30 or 300 nM)-induced intracellular calcium increase, Fura2-AM
T1 construct: expressed in transfected cells; host or cells: CHO cells (G418 selection)
T1 sequence (O95136 whole entry): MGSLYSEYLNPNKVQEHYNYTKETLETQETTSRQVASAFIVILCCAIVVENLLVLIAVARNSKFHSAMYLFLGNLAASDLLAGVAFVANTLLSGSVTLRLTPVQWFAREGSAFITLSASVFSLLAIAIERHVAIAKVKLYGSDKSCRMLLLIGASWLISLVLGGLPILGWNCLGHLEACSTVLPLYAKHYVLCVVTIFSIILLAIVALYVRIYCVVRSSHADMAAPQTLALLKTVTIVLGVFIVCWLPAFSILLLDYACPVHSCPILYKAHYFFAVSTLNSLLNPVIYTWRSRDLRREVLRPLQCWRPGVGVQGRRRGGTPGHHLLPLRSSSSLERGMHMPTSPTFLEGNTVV
Method: (§1) Chinese hamster ovary (CHO) cells overexpressing the human S1P2 (EDG-5) gene were cultured in a Ham's F12 medium containing 10% fetal bovine serum (FBS), an antibiotic/antifungal agent and G418. CHO cells overexpressing the rat S1P2 (EDG-5) gene were cultured in a Ham's F12 medium containing 10% FBS, penicillin/streptomycin and blasticidin S. The cultured cells were incubated in a Fura2-AM solution (5 μM) [a Ham's F12 medium containing FBS (10%), HEPES buffer (20 mM, pH 7.2 to 7.5) and probenecid (2.5 mM)] at 37° C. for 60 minutes. The cells were washed twice with a Hanks' balanced saline containing HEPES buffer (20 mM, pH 7.2 to 7.5) and probenecid (2.5 mM) and immersed in the same solution. A plate was mounted on a fluorescence-based drug screening system and the intracellular calcium ion concentration was measured for 30 seconds without stimulation. A test substance (the final concentration of human S1P2: 0.25 nM to 25 μM and the final concentration of rat S1P2: 0.25 nM to 2.5 μM) or a dimethyl sulphoxide (DMSO) solution was added and after 3 minutes S1P (final concentration: 30 or 300 nM) was added and the increase in the intracellular calcium ion concentration before and after the addition of S1P was measured with an interval of 3 seconds (excitation wavelength: 340 nm and 380 nm, fluorescence wavelength: 540 nm).
(§2) The S1P2 (EDG-5) antagonistic activity was calculated as a suppression (%) from the following formula, wherein A is a control value which was a peak value after addition of S1P (final concentration: 30 or 300 nM) in the wells added with DMSO without a test substance and B is an increased amount after addition of S1P in the cells treated with the test substance: [M 1] Suppression (%)=[(A−B)/A]×100
(§3) Comparative compounds used were the compounds disclosed in Example 1 (64) (hereinafter referred to as comparative compound A) and Example 1 (85) (hereinafter referred to as comparative compound B) in Patent Document 3 (WO 2004/002531). The structural formulae of the comparative compounds are shown below respectively.

rat S1P2 (EDG-5) = molecular target: T2, rat S1P2 (EDG-5) (Rattus norvegicus, UniProt P47752); test: S1P2 (EDG-5) antagonistic activity by monitoring the change in intracellular calcium ion concentration (rat); assay type: cell-based; details: CHO cells overexpressing rat S1P2 (EDG-5) gene; suppression of S1P (30 or 300 nM)-induced intracellular calcium increase, Fura2-AM
T2 construct: expressed in transfected cells; host or cells: CHO cells (blasticidin S selection)
T2 sequence (P47752 whole entry): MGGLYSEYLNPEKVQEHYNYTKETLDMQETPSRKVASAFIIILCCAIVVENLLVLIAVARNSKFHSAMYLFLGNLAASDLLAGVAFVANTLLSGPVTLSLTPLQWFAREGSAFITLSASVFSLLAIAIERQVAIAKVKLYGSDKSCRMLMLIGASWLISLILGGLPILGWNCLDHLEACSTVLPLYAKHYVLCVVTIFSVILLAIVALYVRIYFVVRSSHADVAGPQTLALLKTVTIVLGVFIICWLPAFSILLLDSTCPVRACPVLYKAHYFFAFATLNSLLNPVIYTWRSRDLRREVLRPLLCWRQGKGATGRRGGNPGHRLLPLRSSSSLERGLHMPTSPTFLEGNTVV
Method: as §1, §2, §3

Row | Compound | solubility at 5 h (Solubility measurement) | IC50 (human S1P2 (EDG-5)) | IC50 (rat S1P2 (EDG-5))
1 | CCC(CC)CC1(O)CCN(C(=O)Nc2cc(F)cc(C(F)(F)F)c2)CC1 [Comparative compound A, reference compound] | < 5 µM | – | –
2 | CCC(CC)CC1(O)CCN(C(=O)Nc2cccc(Oc3ccc(F)cc3)c2)CC1 [Comparative compound B, reference compound] | < 5 µM | 1200 nM | 27 nM
3 | CS(=O)(=O)NC(=O)c1ccc(Oc2cc(NC(=O)N3CCC(O)(C4CCCC4)CC3)cc(C(F)(F)F)c2)cc1 [Example 5 (1), 4-cyclopentyl-4-hydroxy-N-[3-{4-[(methylsulphonyl)carbamoyl]phenoxy}-5-(trifluoromethyl)phenyl]-1-piperidine carboxamide] | 72 µM (≈ 41 µg/mL) | 4.6 nM | 9.4 nM
4 | O=C(Nc1cc(Oc2ccc(C3(C(=O)O)CCCC3)cc2)cc(C(F)(F)F)c1)N1CCC(O)(C2CCCCC2)C1 (stereo not shown) [Example 5 (7), 1-{4-[3-{[(3-cyclohexyl-3-hydroxy-1-pyrrolidinyl)carbonyl]amino}-5-(trifluoromethyl)phenoxy]phenyl}cyclopentanecarboxylic acid] | 74 µM (≈ 41.5 µg/mL) | 8.4 nM | 5.1 nM
5 | CC(C)CC1(O)CCN(C(=O)Nc2cc(C(=O)Oc3ccc(C(C)(C)C(=O)O)cc3)cc(C(F)(F)F)c2)CC1 [Example 8, 2-(4-{[3-{[(4-hydroxy-4-isobutyl-1-piperidinyl)carbonyl]amino}-5-(trifluoromethyl)benzoyl]oxy}phenyl)-2-methylpropanoic acid] | 90 µM (≈ 49.6 µg/mL) | 7.3 nM | 3 nM
